Laboratory results taken from ChEMBL document CHEMBL1147899, “Raman, FT-IR, NMR spectroscopic data and antimicrobial activity of bis[micro2-(benzimidazol-2-yl)-2-ethanethiolato-N,S,S-chloro-palladium(II)] dimer, [(micro2-CH2CH2NHNCC6H4)PdCl]2.C2H5OH complex” (2007).
≈ marks a conversion by molar mass, not a printed value.

Key:
Format in all cases: functional
Pseudomonas aeruginosa [1] = test: Antibacterial activity against Pseudomonas aeruginosa ATCC 27853 after 24 hrs by dilution method; conditions: ATCC 27853, 24 h
[2] = tested on: Hanseniaspora guilliermondii; test: Antifungal activity against Hanseniaspora guilliermondii DSM 3432 after 48 hrs by dilution method; conditions: DSM 3432, 48 h
[3] = tested on: Mycolicibacterium smegmatis; test: Antibacterial activity against Mycobacterium smegmatis CCM 2067 after 24 hrs by disk diffusion method
Bacillus cereus [4] = test: Antibacterial activity against Bacillus cereus ATCC 7064 after 24 hrs by disk diffusion method
Debaryomyces hansenii [5] = test: Antifungal activity against Debaryomyces hansenii DSM 70238 after 72 hrs by disk diffusion method
[6] = tested on: Hanseniaspora guilliermondii; test: Antifungal activity against Hanseniaspora guilliermondii DSM 3432 after 72 hrs by disk diffusion method
[7] = tested on: Mycolicibacterium smegmatis; test: Antibacterial activity against Mycobacterium smegmatis CCM 2067 after 24 hrs by dilution method; conditions: CCM 2067, 24 h
Escherichia coli [8] = test: Antibacterial activity against Escherichia coli ATCC 11230 after 24 hrs by dilution method; conditions: ATCC 11230, 24 h
Staphylococcus aureus [9] = test: Antibacterial activity against Staphylococcus aureus ATCC 6538 after 24 hrs by dilution method; conditions: ATCC 6538, 24 h
Micrococcus luteus [10] = test: Antibacterial activity against Micrococcus luteus La 2971 after 24 hrs by dilution method
Rhodotorula mucilaginosa [11] = test: Antifungal activity against Rhodotorula rubra DSM 70403 after 72 hrs by disk diffusion method
Proteus vulgaris [12] = test: Antibacterial activity against Proteus vulgaris ATCC 8427 by after 24 hrs dilution method; conditions: ATCC 8427, 24 h
Escherichia coli [13] = test: Antibacterial activity against Escherichia coli ATCC 11230 after 24 hrs by disk diffusion method
Staphylococcus aureus [14] = test: Antibacterial activity against Staphylococcus aureus ATCC 6538 after 24 hrs by disk diffusion method
Proteus vulgaris [15] = test: Antibacterial activity against Proteus vulgaris ATCC 8427 after 24 hrs by disk diffusion method
Rhodotorula mucilaginosa [16] = test: Antifungal activity against Rhodotorula rubra DSM 70403 after 48 hrs by dilution method; conditions: DSM 70403, 48 h
Candida albicans [17] = test: Antifungal activity against Candida albicans ATCC 10231 after 72 hrs by disk diffusion method
Listeria monocytogenes [18] = test: Antibacterial activity against Listeria monocytogenes ATCC 15313 after 24 hrs by disk diffusion method
Pseudomonas aeruginosa [19] = test: Antibacterial activity against Pseudomonas aeruginosa ATCC 27853 after 24 hrs by disk diffusion method
Klebsiella pneumoniae [20] = test: Antibacterial activity against Klebsiella pneumoniae UC57 after 24 hrs by disk diffusion method
Debaryomyces hansenii [21] = test: Antifungal activity against Debaryomyces hansenii DSM 70238 after 48 hrs by dilution method; conditions: DSM 70238, 48 h
Candida albicans [22] = test: Antifungal activity against Candida albicans ATCC 10231 after 48 hrs by dilution method; conditions: ATCC 10231, 48 h
Klebsiella pneumoniae [23] = test: Antibacterial activity against Klebsiella pneumoniae UC57 after 24 hrs by dilution method
Micrococcus luteus [24] = test: Antibacterial activity against Micrococcus luteus La 2971 after 24 hrs by disk diffusion method
Kluyveromyces marxianus [25] = test: Antifungal activity against Kluyveromyces fragilis NRRL 2415 after 72 hrs by disk diffusion method
Bacillus cereus [26] = test: Antibacterial activity against Bacillus cereus ATCC 7064 after 24 hrs by dilution method; conditions: ATCC 7064, 24 h
Kluyveromyces marxianus [27] = test: Antifungal activity against Kluyveromyces fragilis NRRL 2415 after 48 hrs by dilution method; conditions: NRRL 2415, 48 h
Listeria monocytogenes [28] = test: Antibacterial activity against Listeria monocytogenes ATCC 15313 after 24 hrs by dilution method; conditions: ATCC 15313, 24 h
Proteus vulgaris [29] = test: Antibacterial activity against Proteus vulgaris ATCC 8427 at 10 ug after 24 hrs by disk diffusion method; conditions: ATCC 8427, 24 h, read-out: IZ
[30] = tested on: Mycolicibacterium smegmatis; test: Antibacterial activity against Mycobacterium smegmatis CCM 2067 at 10 ug after 24 hrs by disk diffusion method; conditions: CCM 2067, 24 h, read-out: IZ
Micrococcus luteus [31] = test: Antibacterial activity against Micrococcus luteus La 2971 at 10 ug by disk diffusion method; conditions: read-out: IZ
Listeria monocytogenes [32] = test: Antibacterial activity against Listeria monocytogenes ATCC 15313 at 10 ug after 24 hrs by disk diffusion method; conditions: ATCC 15313, 24 h, read-out: IZ
Klebsiella pneumoniae [33] = test: Antibacterial activity against Klebsiella pneumoniae UC57 at 10 ug after 24 hrs by disk diffusion method; conditions: read-out: IZ
Escherichia coli [34] = test: Antibacterial activity against Escherichia coli ATCC 11230 at 10 ug after 24 hrs by disk diffusion method; conditions: ATCC 11230, 24 h, read-out: IZ
Staphylococcus aureus [35] = test: Antibacterial activity against Staphylococcus aureus ATCC 6538 at 10 ug after 24 hrs by disk diffusion method; conditions: ATCC 6538, 24 h, read-out: IZ
Bacillus cereus [36] = test: Antibacterial activity against Bacillus cereus ATCC 7064 at 10 ug after 24 hrs by disk diffusion method; conditions: ATCC 7064, 24 h, read-out: IZ
Pseudomonas aeruginosa [37] = test: Antibacterial activity against Pseudomonas aeruginosa ATCC 27853 at 10 ug after 24 hrs by disk diffusion method; conditions: ATCC 27853, 24 h, read-out: IZ
Micrococcus luteus [38] = test: Antibacterial activity against Micrococcus luteus La 2971 at 30 ug by disk diffusion method; conditions: read-out: IZ
Staphylococcus aureus [39] = test: Antibacterial activity against Staphylococcus aureus ATCC 6538 at 30 ug after 24 hrs by disk diffusion method; conditions: ATCC 6538, 24 h, read-out: IZ
Proteus vulgaris [40] = test: Antibacterial activity against Proteus vulgaris ATCC 8427 at 30 ug after 24 hrs by disk diffusion method; conditions: ATCC 8427, 24 h, read-out: IZ
[41] = tested on: Mycolicibacterium smegmatis; test: Antibacterial activity against Mycobacterium smegmatis CCM 2067 at 30 ug after 24 hrs by disk diffusion method; conditions: CCM 2067, 24 h, read-out: IZ
Klebsiella pneumoniae [42] = test: Antibacterial activity against Klebsiella pneumoniae UC57 at 30 ug after 24 hrs by disk diffusion method; conditions: read-out: IZ
Bacillus cereus [43] = test: Antibacterial activity against Bacillus cereus ATCC 7064 at 30 ug after 24 hrs by disk diffusion method; conditions: ATCC 7064, 24 h, read-out: IZ
Listeria monocytogenes [44] = test: Antibacterial activity against Listeria monocytogenes ATCC 15313 at 30 ug after 24 hrs by disk diffusion method; conditions: ATCC 15313, 24 h, read-out: IZ
Escherichia coli [45] = test: Antibacterial activity against Escherichia coli ATCC 11230 at 30 ug after 24 hrs by disk diffusion method; conditions: ATCC 11230, 24 h, read-out: IZ
Debaryomyces hansenii [46] = test: Antifungal activity against Debaryomyces hansenii DSM 70238 at 20 ug after 72 hrs by disk diffusion method; conditions: DSM 70238, 72 h, read-out: IZ
[47] = tested on: Hanseniaspora guilliermondii; test: Antifungal activity against Hanseniaspora guilliermondii DSM 3432 at 20 ug after 72 hrs by disk diffusion method; conditions: DSM 3432, 72 h, read-out: IZ
Rhodotorula mucilaginosa [48] = test: Antifungal activity against Rhodotorula rubra DSM 70403 at 20 ug after 72 hrs by disk diffusion method; conditions: DSM 70403, 72 h, read-out: IZ
Kluyveromyces marxianus [49] = test: Antifungal activity against Kluyveromyces fragilis NRRL 2415 at 20 ug after 72 hrs by disk diffusion method; conditions: NRRL 2415, 72 h, read-out: IZ
Candida albicans [50] = test: Antifungal activity against Candida albicans ATCC 10231 at 20 ug after 72 hrs by disk diffusion method; conditions: ATCC 10231, 72 h, read-out: IZ

Row | MIC (Pseudomonas aeruginosa [1]) [µg/mL] | MIC [2] [µg/mL] | MIC [7] [µg/mL] | MIC (Escherichia coli [8]) [µg/mL] | MIC (Staphylococcus aureus [9]) [µg/mL] | MIC (Micrococcus luteus [10]) [µg/mL] | MIC (Proteus vulgaris [12]) [µg/mL] | MIC (Rhodotorula mucilaginosa [16]) [µg/mL] | Structure (SMILES) | inhibition zone (IZ) [3] [mm] | inhibition zone (IZ) (Bacillus cereus [4]) [mm] | inhibition zone (IZ) (Debaryomyces hansenii [5]) [mm] | inhibition zone (IZ) [6] [mm] | inhibition zone (IZ) (Rhodotorula mucilaginosa [11]) [mm] | inhibition zone (IZ) (Escherichia coli [13]) [mm] | inhibition zone (IZ) (Staphylococcus aureus [14]) [mm] | inhibition zone (IZ) (Proteus vulgaris [15]) [mm] | inhibition zone (IZ) (Candida albicans [17]) [mm] | inhibition zone (IZ) (Listeria monocytogenes [18]) [mm] | inhibition zone (IZ) (Pseudomonas aeruginosa [19]) [mm] | inhibition zone (IZ) (Klebsiella pneumoniae [20]) [mm] | other results
1 | 50 (≈ 141 µM) | 12.5 (≈ 35.3 µM) | 12.5 (≈ 35.3 µM) | 50 (≈ 141 µM) | 12.5 (≈ 35.3 µM) | 25 (≈ 70.5 µM) | 12.5 (≈ 35.3 µM) | 25 (≈ 70.5 µM) | c1ccc2[nH]c(CCSSCCc3nc4ccccc4[nH]3)nc2c1 | 13 | 10 | 11 | 12 | 12 | 12 | 14 | 14 | 14 | 13 | 11 | 11 | MIC (Debaryomyces hansenii [21]): 25 µg/mL (≈ 70.5 µM); MIC (Candida albicans [22]): 12.5 µg/mL (≈ 35.3 µM); MIC (Klebsiella pneumoniae [23]): 50 µg/mL (≈ 141 µM); inhibition zone (IZ) (Micrococcus luteus [24]): 12 mm; inhibition zone (IZ) (Kluyveromyces marxianus [25]): 15 mm; MIC (Bacillus cereus [26]): 100 µg/mL (≈ 282 µM); MIC (Kluyveromyces marxianus [27]): 6.25 µg/mL (≈ 17.6 µM); MIC (Listeria monocytogenes [28]): 12.5 µg/mL (≈ 35.3 µM)
2 | 25 | 6.25 | 6.25 | 12.5 | 12.5 | 12.5 | 6.25 | 12.5 | Cl.c1ccc2[nH]c(CCSSCCc3nc4ccccc4[nH]3)nc2c1 | 16 | 12 | 14 | 16 | 15 | 14 | 16 | 16 | 17 | 12 | 12 | 12 | MIC (Debaryomyces hansenii [21]): 12.5 µg/mL; MIC (Candida albicans [22]): 6.25 µg/mL; MIC (Klebsiella pneumoniae [23]): 25 µg/mL; inhibition zone (IZ) (Micrococcus luteus [24]): 14 mm; inhibition zone (IZ) (Kluyveromyces marxianus [25]): 18 mm; MIC (Bacillus cereus [26]): 50 µg/mL; MIC (Kluyveromyces marxianus [27]): 3.12 µg/mL; MIC (Listeria monocytogenes [28]): 12.5 µg/mL
3 | – | – | – | – | – | – | – | – | CC1(C)S[C@@H]2[C@H](NC(=O)[C@H](N)c3ccccc3)C(=O)N2[C@H]1C(=O)O [AMPICILLIN] | – | – | – | – | – | – | – | – | – | – | – | – | zone of inhibition at 10 µg/disc (Proteus vulgaris [29]): 16 mm; zone of inhibition at 10 µg/disc [30]: 21 mm; zone of inhibition at 10 µg/disc (Micrococcus luteus [31]): 32 mm; zone of inhibition at 10 µg/disc (Listeria monocytogenes [32]): 12 mm; zone of inhibition at 10 µg/disc (Klebsiella pneumoniae [33]): 14 mm; zone of inhibition at 10 µg/disc (Escherichia coli [34]): 12 mm; zone of inhibition at 10 µg/disc (Staphylococcus aureus [35]): 16 mm; zone of inhibition at 10 µg/disc (Bacillus cereus [36]): 12 mm; zone of inhibition at 10 µg/disc (Pseudomonas aeruginosa [37]): 10 mm
4 | – | – | – | – | – | – | – | – | CO/N=C(\C(=O)N[C@@H]1C(=O)N2C(C(=O)O)=C(COC(C)=O)CS[C@H]12)c1csc(N)n1 [CEFOTAXIME] | – | – | – | – | – | – | – | – | – | – | – | – | zone of inhibition at 30 µg/disc (Micrococcus luteus [38]): 32 mm; zone of inhibition at 30 µg/disc (Staphylococcus aureus [39]): 12 mm; zone of inhibition at 30 µg/disc (Proteus vulgaris [40]): 18 mm; zone of inhibition at 30 µg/disc [41]: 11 mm; zone of inhibition at 30 µg/disc (Klebsiella pneumoniae [42]): 13 mm; zone of inhibition at 30 µg/disc (Bacillus cereus [43]): 14 mm; zone of inhibition at 30 µg/disc (Listeria monocytogenes [44]): 16 mm; zone of inhibition at 30 µg/disc (Escherichia coli [45]): 10 mm
5 | – | – | – | – | – | – | – | – | CC(=O)N1CCN(c2ccc(OCC3COC(Cn4ccnc4)(c4ccc(Cl)cc4Cl)O3)cc2)CC1 (stereo not drawn) [KETOCONAZOLE] | – | – | – | – | – | – | – | – | – | – | – | – | zone of inhibition at 20 µg/disc (Debaryomyces hansenii [46]): 14 mm; zone of inhibition at 20 µg/disc [47]: 24 mm; zone of inhibition at 20 µg/disc (Rhodotorula mucilaginosa [48]): 22 mm; zone of inhibition at 20 µg/disc (Kluyveromyces marxianus [49]): 16 mm; zone of inhibition at 20 µg/disc (Candida albicans [50]): 21 mm
